Experimental data taken from patent US9914755B2, “Cyclosporin derivatives wherein the MeBmt sidechain has been cyclized” (Allergan, Inc., priority 2015, dated 2018).
pIC50, pKi: −log10 of the molar value. Where two headings read alike, the source gives them in different places. Starred links: 1 amine or outer side, 2 acyl side, 3 side chain; linkers in the order of their positions; H or OH if unused. Non-standard residues stand in square brackets, D forms with d. Residues, ends and D or L forms follow the SMILES beside them. X1 = C[C@@H]1CCO[C@H]1[C@H](C(=O)[*:2])N(C)[*:1]; NMeL = CN[C@@H](CC(C)C)C(=O)O; dNMeL = CN[C@H](CC(C)C)C(=O)O; dNMeV = CN[C@@H](C(=O)O)C(C)C; dNMeA = CN[C@H](C)C(=O)O

How the values were obtained:
[1] = molecular target: T1, Human recombinant cyclophilin A (CypA) (Homo sapiens, UniProt P62937); assay: Protease-free PPIase assay, cyclophilin A; assay type: biochemical
T1 construct: purchased Sigma C3805
T1 sequence (P62937 whole entry): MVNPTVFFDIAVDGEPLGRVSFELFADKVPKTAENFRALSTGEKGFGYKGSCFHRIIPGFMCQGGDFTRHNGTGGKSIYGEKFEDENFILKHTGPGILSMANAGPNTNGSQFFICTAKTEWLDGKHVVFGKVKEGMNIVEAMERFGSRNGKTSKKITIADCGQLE
Method: (§1) Protease-Free PPIase Assay The protease-free PPIase assay measures the rate of cis to trans conversion of a peptide substrate catalyzed by the enzyme cyclophilin A or D. Addition of a cyclophilin inhibitor (e.g., a test compound) slows the catalyzed rate and a Ki value is obtained. 35 mM HEPES pH 7.8, filtered through a 0.2 μm filter. 50 μM DTT was added prior to use each day and then the buffer was stored on ice. […] Human recombinant 6-His tagged cyclophilin D (CypD), prepared by the University of Edinburgh, was used to generate CypD inhibition data. Succinimide-[…]-nitroanilide (SUC-AAPF-pNA) (from Bachem AG, L-1400), 20 mg/ml prepared in 0.5 M LiCl in trifluoroethanol. All readings were taken with an Agilent 8453 Spectrophotometer which consisted of a cuvette holder, stirrer and chiller to maintain a stirred cuvette temperature of 10.0±0.1° C. The temperature was monitored by the use of temperature probe. […] The inhibitor was diluted in 100% DMSO, and then added to the assay to a maximum final concentration of 0.5% DMSO in the assay. […] The absorbance was measured at 330 nm for 300 s or 500 s for blank runs (NOTE: the substrate was added in one quick injection and the measurements started immediately to minimize mixing errors). A first order rate equation was fitted to the absorbance data, for each concentration of inhibitor, to obtain the rate constant (the first 10 to 15 seconds were excluded, as mixing causes errors in this portion of the curve). The catalytic rate was calculated from the enzymatic rate constant minus the background rate constant. An exponential curve was generated using the catalytic rate constants versus the inhibitor concentration to obtain the Ki value for the inhibitor. The Ki value is indicative of the binding affinity between the test compound and cyclophilin A.

[2] = molecular target: T2, Human recombinant 6-His tagged cyclophilin D (CypD) (Homo sapiens, UniProt P30405); assay: Protease-free PPIase assay, cyclophilin D; assay type: biochemical
T2 construct: 6-His
T2 sequence (P30405 30-207): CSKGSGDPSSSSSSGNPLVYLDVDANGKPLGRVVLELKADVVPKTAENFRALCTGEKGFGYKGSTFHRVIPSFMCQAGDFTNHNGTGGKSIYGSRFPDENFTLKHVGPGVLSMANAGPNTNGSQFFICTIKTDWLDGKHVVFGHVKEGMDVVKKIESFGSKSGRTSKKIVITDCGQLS
Method: as §1

[3] = Water Solubility Assay (onset of precipitation in buffer); settings: 25 °C, pH 7.4, aqueous buffer, kinetic from dmso stock
Method: (§2) The aqueous solubility of a compound of Formula I in buffer (pH 7.8) was measured by recording the onset of precipitation of the compound as a function of increasing concentration. The onset of precipitation, if it occurred, was detected by an increase in absorbance at 650 nm.
(§3) Stock solutions of Control and Test Compounds: 10 mM in 100% DMSO.
(§4) 10 mM stock solutions of control and test compounds were prepared in 100% DMSO.
(§5) Assay buffer (247.5 μl) was placed into a flat bottomed transparent 96-well plate. For blank samples, DMSO (2.5 μl) was added. For test and control samples, 2.5 μl of the appropriate DMSO dilution stocks were added to the appropriate well. All test and control compounds were performed in triplicate.
(§6) The plates were sealed with adhesive plate seal and shaken at 250 rpm at 25° C. for 18 h on a plate shaker. After incubation, the plate seals were taken off and any bubbles observed in wells removed. The plates were read on a SpectraMaxM5 with a 5 s pre-shake at 650 nm.
(§7) Data files were transferred to the appropriate worksheet and the solubility range of the compounds was calculated from the data.

calcineurin = molecular target: T3, calcineurin (Homo sapiens, UniProt P62937+P63098+Q08209); assay: Calcineurin Phosphatase (CaN) Assay; assay type: biochemical; settings: in the presence of CypA, 1:1 complex of inhibitor with CypA
T3 construct: purchased Enzo Life Sciences BML-AK804
Excerpt: Calcineurin Phosphatase (CaN) Assay
The calcineurin phosphatase assay is a means for estimating the immunosuppressive potential of a test compound. Calcineurin is a serine-threonine protein phosphatase that on activation dephosphorylates members of the nuclear factor of activated T cells (NFAT), which are important in T lymphocyte activation.
To investigate the immunosuppressive potential of exemplary compounds of Formula I, which are cyclosporin analogs, their ability to inhibit calcineurin activity was measured in the presence and absence of CypA.
The CaN assay kit used is based on a colorimetric assay for measuring calcineurin phosphatase activity, and it is commercially available (Enzo Life Sciences and Calbiochem). Calmodulin is also required for calcineurin activity, and RII phosphopeptide is used as an efficient peptide substrate for calcineurin. […] The detection of free phosphate released is based on the classic Malachite green assay.
Enzo Life Sciences CaN Assay Kit: BML-AK804
For samples ‘without CypA’, a 4-point dilution series of the inhibitor was prepared in duplicate to obtain a final assay concentration of 10, 1, 0.1 and 0.01 μM. For samples ‘with CypA’, a 7-point dilution series was prepared to obtain a 1:1 complex of the inhibitor with CypA; the inhibitor and CypA final assay concentrations of 10, 3.33, 1.11, 0.37, 0.12, 0.04, 0.014 μM were prepared.
using the half area 96 well plates supplied with the kit, 10 μl UPW was added to duplicate wells to provide the non-inhibited control. 10 μl of the inhibitor or the inhibitor/CypA complex was added to the appropriate sample wells. 25 μl of the 2× assay buffer with calmodulin (CaM) was added to all wells, then 5 μl of calcineurin phosphatase (CaN) was added to all wells (40 U per well final concentration) except duplicate ‘no calcineurin blank’ wells to which 5 μL 1× assay buffer was added. The assay plate was placed in an oven at 30° C. for 15 minutes to equilibrate to the reaction temperature. The reaction was started by the addition of 10 μl RII-peptide (0.15 mM final concentration). The reaction was allowed to proceed at 30° C. for a time period in which the reaction is linear for about 60 minutes. The reaction was then terminated by adding 100 μl of the Malachite Green reagent. The color was allowed to develop for 15-30 minutes at room temperature before the absorbance at 620 nm was measured using a plate reader (Molecular Devices—SpectraMax M5). The data were analyzed by subtracting ‘no calcineurin blank’ from all the absorbance readings and plotting the background corrected absorbances against Log10 inhibitor concentration. A sigmoidal-dose response curve was fitted to the data using GraphPad Prism Software.
It exerts its immunosuppressive activity by binding to CypA to form a complex, which then binds to calcineurin and thereby inhibits calcineurin activity.

physchem = settings: 25 °C, pH 7.4, aqueous buffer, kinetic from dmso stock
Method: as §2, §3, §4, §5, §6, §7

[4] = human recombinant CypA, 10 °C, SUC-AAPF-pNA substrate, read-out: CypA Protease-free PPIase Assay Ki
[5] = human recombinant 6-His CypD, 10 °C, SUC-AAPF-pNA substrate, read-out: CypD Protease-free PPIase Assay Ki

| pKi [1, 4] | pKi [2, 5] | pIC50 (calcineurin) | solubility at 18 h (physchem) [µM] | SMILES | pKi [1] | pKi [2] | solubility at 18 h [3] [µM] |
| --- | --- | --- | --- | --- | --- | --- | --- |
| – | – | – | – | CC(C)C[C@@H]1C(=O)N(C)[C@H](CC(C)C)C(=O)N(C)[C@H](C(C)C)C(=O)N(C)[C@H]([C@@H]2OCC[C@H]2C)C(=O)N[C@H](C)C(=O)N(C)CC(=O)N(C)[C@@H](CC(C)C)C(=O)N[C@H](C(C)C)C(=O)N(C)[C@H](CC(C)C)C(=O)N[C@H](C)C(=O)N[C@@H](C)C(=O)N1C [Compound 9, [(2S)-2-(methylamino)-2-[(2R,3R)-3-methyltetrahydrofuran-2-yl]acetic acid]^1 cyclosporin B] | 5.07 | 6.70 | > 100 |
| 6.26 | 7.10 | < 5.00 | > 100 | CC[C@H]1NC(=O)[C@@H]([C@@H]2OCN(C)C[C@H]2C)N(C)C(=O)[C@@H](C(C)C)N(C)C(=O)[C@@H](CC(C)C)N(C)C(=O)[C@@H](CC(C)C)N(C)C(=O)[C@H](C)NC(=O)[C@@H](C)NC(=O)[C@@H](CC(C)C)N(C)C(=O)[C@@H](C(C)C)NC(=O)[C@H](CC(C)C)N(C)C(=O)[C@@H](C)N(C)C1=O [Compound 24] | – | – | – |
| 5.70 | 6.17 | < 5.00 | > 100 | CC(C)C[C@@H]1C(=O)N(C)[C@H](CC(C)C)C(=O)N(C)[C@H](C(C)C)C(=O)N(C)[C@H]([C@@H]2OCC[C@H]2C)C(=O)N[C@H](C)C(=O)N(C)[C@H](C)C(=O)N(C)[C@@H](CC(C)C)C(=O)N[C@H](C(C)C)C(=O)N(C)[C@H](CC(C)C)C(=O)N[C@H](C)C(=O)N[C@@H](C)C(=O)N1C [Compound 10, [(2S)-2-(methylamino)-2-[(2R,3R)-3-methyltetrahydrofuran-2-yl]acetic acid]^1 [(R)-methyl-Sar]^3 cyclosporin B] (cyclo(A[dNMeL][dNMeL][dNMeV][X1][dA][dNMeA][NMeL][dV][dNMeL][dA])) | – | – | – |
